Where two headings read alike, the source gives them in different places.
Key:
[1] = test system: wild-type ZIKV (Ugandan MR766 strain) in Vero cells; experiment: ZIKV cytopathic effect (CPE) inhibition qHTS assay, CellTiter-Glo readout; assay type: cell-based, Zika virus; settings: for AC50 / IC50: Zika virus, Vero; for IC50: 48 h, read-out: ZIKV-infection (CPE, ZIKV Antiviral Assays), IC50
[2] = test system: caspase-3 activity induced by ZIKV in Vero cells; experiment: cells; assay type: cell-based; settings: Zika virus, Vero, 48 h, read-out: Caspase 3 (ZIKV Antiviral Assays), IC50
[3] = test system: ZIKV-RLuc (Cambodian strain FSS13025); experiment: microbe, parasite or virus in culture; assay type: cell-based, Zika virus; settings: Zika virus, Vero, 48 h, read-out: Rluc-ZIKV (ZIKV Antiviral Assays), IC50
[4] = test system: ZIKV-mCherry (Cambodian strain FSS13025); experiment: microbe, parasite or virus in culture; assay type: cell-based, Zika virus
[5] = test system: mCherry-ZIKV in human neuronal progenitor cells; experiment: microbe, parasite or virus in culture; assay type: cell-based, Zika virus; settings: for AC50 / IC50: Zika virus, Neuronal progenitor cell; for IC50: read-out: NPC (ZIKV Antiviral Assays), IC50
[6] = test system: DENV (Dengue virus type 2, strain New Guinea C)
in vitro [7] = settings: African green monkey, Vero cells
in vitro [8] = settings: human
in vitro [9] = settings: human; remark: listed apart in the source
[10] = read-out: Log AC50 (M) (converted)

SMILES	CC-v2 (curve class classification of the dose response curve) [1]	Efficacy [1]	AC50 [1]	IC50 [1]	AC50 [1, 10]	IC50 [2]	IC50 [3]	CC-v2 (curve class of the dose response curve) [4]	Efficacy (difference between neutral response and maximum compound response) [4]	Max Resp (difference between neutral response and response at highest compound concentration) [4]	CC-v2 (curve class) [5]	Efficacy [5]	Max Resp [5]	IC50 [5]	DENV active Yes/No [6]	ZIKV active Yes/No (ZIKV)	WHV active Yes/No (WNV (Kern515/WN02))	YFV active Yes/No (YFV (YFV 17D))	CC50 at 48 h (in vitro [7])	CC50 (in vitro [8])	further results
Cc1[nH]c2ccccc2c1C1=C(NCCc2ccc(F)cc2)C(=O)N(C)C1=O [NCGC00386352-05]	-1.2	-35.912	2.06e-05 M	20.6 µM	2.06e-05 M	33.1 µM	7.37 µM	-1.4	-71.769	-66.876	-2.2	-103.895	-78.246	39.8 µM	Yes	Yes	No	No	> 50 µM	> 30 µM	Antiviral activity in human NPC [5]: effectively inhibited ZIKV in NPC cells; AC50 [5]: 3.98e-05 M; AC50 [5, 10]: 3.98e-05 M; Activity against DENV [6]: active against both DENV and ZIKV; SI value DENV (CC50/EC50) [6]: 24; Selectivity Index DENV (CC50/EC50) [6]: 24; Activity against ZIKV (ZIKV): active against both DENV and ZIKV; SI value ZIKV (CC50/EC50) (ZIKV): 23; Selectivity Index ZIKV (CC50/EC50) (ZIKV): 23; CC50 at 24 h (in vitro [9]): 17.8 µM
COc1ccc2c(c1)C=C1Cn3c-2c(C2CCCCC2)c2ccc(cc23)C(=O)N[S+](=O)([O-])N(C)CCOCCN(C)C1=O [NCGC00482982-02]	-2.2	-39.12	2.59e-05 M	25.9 µM	2.59e-05 M	1.66 µM	20.8 µM	-1.4	-60.775	-100.29	4	-30.77	-24.808	5.01 µM	No	No	No	No	> 50 µM	> 30 µM	CC50 at 24 h (in vitro [9]): > 30 µM
